Test [1] concerns WTB. In words: Example 2 Field Test 2: X in combination with DMNT, vittatol, rose oxides. It is filed as in vivo, Pityophthorus juglandis. The arrangement: trap catches, male WTB / trap catches, female WTB: dose or concentration left out as unconfirmed. Conditions: 4-unit Lindgren funnel traps. On the procedure: At the same time and location, the flight response of WTB to 3-methyl-2-buten-1-ol ([…], Contech) was tested in combination with each of the following compounds: DMNT [4,8-dimethyl-1,3(E),7-nonatriene], vittatol [(3R,6R)-3-hydroxy-2,2,6-trimethyltetrahydropyran], (−)- and (+)-rose oxide [tetrahydro-4-methyl-2-(2-methylpropenyl)-2H-pyran] (Table 3, Field Test 2). DMNT and vittatol were synthesized and provided by Prof. Wittko Francke, University of Hamburg, Institute of Organic Chemistry; whereas (−)-rose oxide (>99% chemical purity, product #83917-1 ML, Fluka, Milwaukee, Wis.) and (+)-rose oxide (>99% chemical purity, product #83915-1 ML, Fluka) were purchased. The compounds besides 3-methyl-2-buten-1-ol were released from closed 400 μl Eppendorf microcentrifuge tubes (Evergreen) with loads of approximately 50 μl (DMNT); 20 mg (vittatol, solid at room temperature); and approx. 200 μl each of (−)-and (+)-rose oxide. The six treatments were replicated in three spatial blocks and the treatments were re-randomized among the six trap stations in a block each time the traps were emptied (nearly every day).
Statistical Analyses. Analysis of treatment effects for the pouch vs. bottle experiment was done by using a sign test. (See Zar, J. H. 2010. Biostatistical Analysis. 5th ed. Pearson Prentice Hall, Englewood Cliffs, N.J.) The other four experiments were analyzed for treatment effect by using Friedman's non-parametric analysis of variance. Id. In all experiments, males and females were analyzed separately. All treatments within experiments yielding a significant treatment effect were compared by using an a posteriori Nemenyi test with experimentwise α=0.05. Id. For all experiments, differences among proportions of female WTB responding to treatments were analyzed by comparing 95% confidence intervals determined with the Clopper-Pearson method. Id.

For test [2], the system named is walnut twig beetle (WTB), Pityophthorus juglandis. In words: Example 1 Field Test 4: flight response to X with and without racemic chalcogran. The class given is in vivo. Conditions: yellow sticky card traps, Davis CA. On the procedure:
Field Bioassays of Semiochemicals. To test the attractiveness of the various compounds of interest, some of the commercially available materials listed above were poured into 15 ml capped polyethylene bottles (Product #s A1-1050/002, A1-1055/002; Contech Enterprises Inc., Delta, British Columbia, Canada) and attached to yellow sticky card traps (Trécé, Adair, OK). In addition, synthesized (+) and (−) enantiomers of trans-conophthorin were tested in 400 μl polyethylene Eppendorf microcentrifuge tubes. Four field studies were conducted (Table 2) that tested the flight responses to: 3-methyl-2-buten-l-ol and related isomers (Field Test 1); 3-methyl-2-buten-l-ol with and without racemic trans-conophthorin (Field Test 2); 3-methyl-2-buten-l-ol with and without the purified enantiomers of trans-conophthorin (Field Test 3); and 3-methyl-2-buten-l-ol with and without racemic chalcogran (Field Test 4).
Statistical Analysis. Field Tests 1-4 were each analyzed for treatment effect by using Friedman's non-parametric analysis of variance. (See Zar, J. H. 2010. Biostatistical Analysis, 5th Ed. Pearson Prentice Hall, New Jersey). Males and females were subjected to separate analyses. All treatments within experiments yielding a significant treatment effect were compared by using an a posteriori Nemenyi test (Zar 2010) with experimentwise α=0.05. Sex ratios of responding WTB were determined using Cochran's method for unbiased sampling (See Cochran, W. G. 1977. Sampling Techniques, 3rd ed. John Wiley, New York), with 95% confidence intervals calculated by using the Clopper-Pearson method. (See Zar, J. H. 2010. Biostatistical Analysis, 5th Ed. Pearson Prentice Hall, New Jersey).

The subject of test [3] is WTB. Description: Trap height: 4-unit Lindgren funnel traps baited with X. The class given is in vivo, Pityophthorus juglandis. Particulars: for trap catches, female WTB / trap catches, male WTB: 15 to 80 mg/d. On the procedure:
In another experiment, the effect of trap height on the flight response of WTB was also tested with 4-unit Lindgren funnel traps at Wolfskill Experimental Orchards from late summer to early fall. The traps were each baited with the commercial version of 3-methyl-2-buten-1-ol (15 to 80 mg/d, Contech pouch) and placed at 45, 123, 199, and 271 cm (hereafter 0.5, 1.2, 2.0, and 2.7 m) from the orchard floor (measured from the floor to the middle of the trap). Traps were attached to individual 3 m metal conduit poles by using a thick piece of wire threaded through a hole drilled in the conduit pole and the eyebolt attached to the top of the funnel trap. (See Seybold, S. J., Dallara, P. L., Hishinuma, S. M., and Flint, M. L. Detecting and Identifying the Walnut Twig Beetle: Monitoring Guidelines for the Invasive Vector of Thousand Cankers Disease of Walnut, University of California Agriculture and Natural Resources, Statewide Integrated Pest Management Program, 11 pp., Apr. 30, 2012.) Three blocks of treatments were installed, trap catches were collected daily during periods of high flight activity, and the treatments were re-randomized among the four trap stations within a block each time that the traps were emptied.
Statistical Analyses. Analyses of treatment effects for the tests of trap type were performed by using Friedman's non-parametric analysis of variance or a sign test, depending on the number of treatments. (See Zar, J. H. 2010. Biostatistical Analysis. 5th ed. Pearson Prentice Hall, Englewood Cliffs, N.J.) Analysis of treatment effects for the Rain•X experiment was performed by using a Wilcoxon paired sample test. Id. Multiple comparisons for experiments with more than two treatments were performed with an a posteriori Nemenyi test with experimentwise α=0.05. Id. In all cases, male and female WTB were analyzed separately. Proportions of female WTB responding to treatments were calculated and 95% confidence intervals determined by using the Clopper-Pearson method. Id.

Where [4] appears, read: about one month late summer, N=13.

Experimental findings from patent US20130014428A1, “METHODS OF MONITORING AND CONTROLLING THE WALNUT TWIG BEETLE, PITYOPHTHORUS JUGLANDIS” (The United States of America as Represented by the …, priority 2011, published 2013) are described below.

As for `CC(C)=CCO` [X, 3-methyl-2-buten-1-ol], the “proportion of females responding” value was determined as 0.70 in the test with WTB [1]; 0.69 in test [2]; 0.76 in the test with WTB [3] (0.5 m trap); 0.77 with WTB [3] (1.2 m trap); 0.77 with WTB [3] (2.0 m trap); 0.77 in the test on WTB [3] (2.7 m trap). For the same compound, the “trap catches, female WTB” value in the test with WTB [1] (N=42) is 100; in test [2] (setting [4]) it was 94; in the test with WTB [3] (0.5 m trap), 392; in the test with WTB [3] (1.2 m trap), 469; in the test on WTB [3] (2.0 m trap), 875; in the test with WTB [3] (2.7 m trap), 757. Further, the “trap catches, male WTB” value was found to be 43 in the test on WTB [1] (N=42); 43 in test [2] (setting [4]); 125 in the test on WTB [3] (0.5 m trap); 139 in the test with WTB [3] (1.2 m trap); 265 in the test on WTB [3] (2.0 m trap); 225 in the test on WTB [3] (2.7 m trap).
